In one assay the target is human (hACC2) (Homo sapiens, UniProt O00763). Description: In vitro ACC inhibition assay (ADP-Glo), hACC2. Type of assay: biochemical. As to conditions: 5 nM ACC2, 20 μM ATP, 20 μM acetyl-CoA. As for the experimental part:
The detailed procedure is as follows. […] 10 μL ADP glo reagent was added. […] 20 μL kinase detection reagent was added.
Background: In ADP-Glo the light output rises with the ADP produced.

The test system of a further assay is C. albicans. Nature of the assay: Antifungal Activity Assay (broth microtiter MIC), C. albicans. The note with it: Candida albicans, ATCC90028, 48 h. Type of assay: cell-based, Candida albicans. A digest of the protocol: (§1)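 CLSI M27-A3 microdilution; RPMI 1640+MOPS; 2.5×10^3 CFU/mL final inoculum; cultures from Sabouraud dextrose agar, 35° C overnight; compound working solution 128 μg/mL from 1 mg/mL DMSO stock; visual MIC at 48 h vs growth control.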

For the next assay, the system named is C. krusei. Description: Antifungal Activity Assay (broth microtiter MIC), C. krusei. The class given is cell-based, Candida krusei. As to conditions: Pichia kudriavzevii, ATCC6258, 48 h. In short, it runs like this: as §1
A further assay relates to C. parapsilosis. Nature of the assay: Antifungal Activity Assay (broth microtiter MIC), C. parapsilosis. Type of assay: cell-based, Candida parapsilosis. The note with it: Lodderomyces parapsilosis, ATCC22019, 48 h. A digest of the protocol:
as §1

A further assay deals with Botrtyis cinerea (Bc). Description: Growth inhibition assay of fungal pathogens, Bc. The note with it: 48 h. Type of assay: cell-based. In short, it runs like this:
(§2)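 Pathogen growth in 17% V8 broth is measured by OD600 at 24 and 48 hours, after blank subtraction, in the presence of compound at 50, 10 and 2 ppm or 2, 0.4 and 0.08 ppm. Inhibition in percent comes from 48-hour readings against the DMSO control.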

The test system of another assay is Diplodia maydis (Dm). Nature of the assay: Growth inhibition assay of fungal pathogens, Dm. Type of assay: cell-based. The note with it: Stenocarpella maydis, 48 h. A digest of the protocol: as §2
Assay [1] relates to Fusarium virguliforme (Fv). Description: Growth inhibition assay of fungal pathogens, Fv. The class given is cell-based. The note with it: 48 h. In short, it runs like this:
as §2

Assay [2] deals with Phytophthora capsici (Pc). Nature of the assay: Growth inhibition assay of fungal pathogens, Pc. Type of assay: cell-based. As to conditions: 48 h. In short, it runs like this: as §2
The next assay relates to Rhizoctonia solani (Rs). Description: Growth inhibition assay of fungal pathogens, Rs. The note with it: 48 h. The class given is cell-based.
The next assay addresses fungal (fACC2) (UniProt Q00955). As to conditions: read-out: fACC2 (in vitro ACC2 Inhibition Assay, IC50), ADP-Glo, 5 nM ACC2, 20 μM ATP, 20 μM acetyl-CoA.

Converted amounts (≈) assume the structure as drawn. Read-outs that look alike come from different tables or passages of the source.

human (hACC2), sequence (O00763 whole entry): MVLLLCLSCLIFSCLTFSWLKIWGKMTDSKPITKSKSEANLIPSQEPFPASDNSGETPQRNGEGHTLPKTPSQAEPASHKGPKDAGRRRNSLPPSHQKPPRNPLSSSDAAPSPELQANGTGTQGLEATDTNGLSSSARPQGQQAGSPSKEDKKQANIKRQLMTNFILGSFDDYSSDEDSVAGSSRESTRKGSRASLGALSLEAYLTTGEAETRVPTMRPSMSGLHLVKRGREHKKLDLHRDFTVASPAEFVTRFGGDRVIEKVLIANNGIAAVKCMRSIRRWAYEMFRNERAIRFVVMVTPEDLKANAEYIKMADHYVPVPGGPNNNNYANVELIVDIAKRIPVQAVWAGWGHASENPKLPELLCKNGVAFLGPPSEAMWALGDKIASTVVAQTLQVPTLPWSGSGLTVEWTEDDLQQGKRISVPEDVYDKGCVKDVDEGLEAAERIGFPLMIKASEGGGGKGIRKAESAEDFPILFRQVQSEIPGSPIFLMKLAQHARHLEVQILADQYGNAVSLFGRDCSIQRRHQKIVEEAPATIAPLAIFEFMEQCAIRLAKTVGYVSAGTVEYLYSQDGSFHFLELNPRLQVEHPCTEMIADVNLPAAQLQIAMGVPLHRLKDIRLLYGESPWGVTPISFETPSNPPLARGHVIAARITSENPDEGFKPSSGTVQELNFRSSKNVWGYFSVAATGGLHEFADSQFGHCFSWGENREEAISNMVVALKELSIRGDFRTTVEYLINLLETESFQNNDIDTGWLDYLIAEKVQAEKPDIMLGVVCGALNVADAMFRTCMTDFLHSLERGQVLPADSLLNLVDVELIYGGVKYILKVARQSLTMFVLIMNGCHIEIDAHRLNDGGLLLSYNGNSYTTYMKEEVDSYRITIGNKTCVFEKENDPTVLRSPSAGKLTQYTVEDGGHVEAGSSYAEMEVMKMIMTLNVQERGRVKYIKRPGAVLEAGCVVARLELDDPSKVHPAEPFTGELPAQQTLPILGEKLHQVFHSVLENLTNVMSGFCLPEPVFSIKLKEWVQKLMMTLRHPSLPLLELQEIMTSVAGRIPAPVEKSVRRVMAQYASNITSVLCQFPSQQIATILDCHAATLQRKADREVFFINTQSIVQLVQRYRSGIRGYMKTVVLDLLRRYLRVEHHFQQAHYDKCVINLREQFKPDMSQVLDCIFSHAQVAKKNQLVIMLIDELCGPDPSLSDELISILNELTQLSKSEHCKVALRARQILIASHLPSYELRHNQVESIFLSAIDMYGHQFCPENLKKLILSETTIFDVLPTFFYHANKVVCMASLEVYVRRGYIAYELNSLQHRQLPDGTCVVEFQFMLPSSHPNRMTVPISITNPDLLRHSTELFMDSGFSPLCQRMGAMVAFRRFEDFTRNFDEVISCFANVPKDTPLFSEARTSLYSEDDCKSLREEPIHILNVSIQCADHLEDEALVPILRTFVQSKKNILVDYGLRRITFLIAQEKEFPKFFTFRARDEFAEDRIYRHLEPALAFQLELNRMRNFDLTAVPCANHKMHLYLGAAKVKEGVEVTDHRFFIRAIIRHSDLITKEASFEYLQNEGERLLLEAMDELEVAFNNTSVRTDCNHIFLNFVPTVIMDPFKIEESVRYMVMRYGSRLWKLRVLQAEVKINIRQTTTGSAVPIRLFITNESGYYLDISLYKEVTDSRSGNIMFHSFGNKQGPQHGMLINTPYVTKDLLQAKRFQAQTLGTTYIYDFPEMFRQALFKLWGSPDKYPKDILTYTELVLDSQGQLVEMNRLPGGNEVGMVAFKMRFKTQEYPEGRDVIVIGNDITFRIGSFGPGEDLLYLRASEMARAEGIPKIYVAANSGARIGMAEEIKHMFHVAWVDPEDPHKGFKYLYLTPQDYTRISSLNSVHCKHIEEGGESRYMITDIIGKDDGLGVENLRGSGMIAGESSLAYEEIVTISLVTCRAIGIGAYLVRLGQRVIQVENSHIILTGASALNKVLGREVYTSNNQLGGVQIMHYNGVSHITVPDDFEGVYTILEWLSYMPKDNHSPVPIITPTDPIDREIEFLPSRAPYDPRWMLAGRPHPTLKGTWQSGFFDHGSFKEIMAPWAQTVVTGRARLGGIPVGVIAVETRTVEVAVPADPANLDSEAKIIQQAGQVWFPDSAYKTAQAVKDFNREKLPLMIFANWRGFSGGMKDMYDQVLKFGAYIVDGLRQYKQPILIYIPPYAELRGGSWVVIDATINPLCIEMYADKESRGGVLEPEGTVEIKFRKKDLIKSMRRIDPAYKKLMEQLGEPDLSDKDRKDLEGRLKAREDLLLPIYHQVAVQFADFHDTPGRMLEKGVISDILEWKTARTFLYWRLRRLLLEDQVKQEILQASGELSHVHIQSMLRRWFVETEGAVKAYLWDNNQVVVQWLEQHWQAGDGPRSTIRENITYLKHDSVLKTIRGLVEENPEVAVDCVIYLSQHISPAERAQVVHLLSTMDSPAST
fungal (fACC2), sequence (Q00955 whole entry): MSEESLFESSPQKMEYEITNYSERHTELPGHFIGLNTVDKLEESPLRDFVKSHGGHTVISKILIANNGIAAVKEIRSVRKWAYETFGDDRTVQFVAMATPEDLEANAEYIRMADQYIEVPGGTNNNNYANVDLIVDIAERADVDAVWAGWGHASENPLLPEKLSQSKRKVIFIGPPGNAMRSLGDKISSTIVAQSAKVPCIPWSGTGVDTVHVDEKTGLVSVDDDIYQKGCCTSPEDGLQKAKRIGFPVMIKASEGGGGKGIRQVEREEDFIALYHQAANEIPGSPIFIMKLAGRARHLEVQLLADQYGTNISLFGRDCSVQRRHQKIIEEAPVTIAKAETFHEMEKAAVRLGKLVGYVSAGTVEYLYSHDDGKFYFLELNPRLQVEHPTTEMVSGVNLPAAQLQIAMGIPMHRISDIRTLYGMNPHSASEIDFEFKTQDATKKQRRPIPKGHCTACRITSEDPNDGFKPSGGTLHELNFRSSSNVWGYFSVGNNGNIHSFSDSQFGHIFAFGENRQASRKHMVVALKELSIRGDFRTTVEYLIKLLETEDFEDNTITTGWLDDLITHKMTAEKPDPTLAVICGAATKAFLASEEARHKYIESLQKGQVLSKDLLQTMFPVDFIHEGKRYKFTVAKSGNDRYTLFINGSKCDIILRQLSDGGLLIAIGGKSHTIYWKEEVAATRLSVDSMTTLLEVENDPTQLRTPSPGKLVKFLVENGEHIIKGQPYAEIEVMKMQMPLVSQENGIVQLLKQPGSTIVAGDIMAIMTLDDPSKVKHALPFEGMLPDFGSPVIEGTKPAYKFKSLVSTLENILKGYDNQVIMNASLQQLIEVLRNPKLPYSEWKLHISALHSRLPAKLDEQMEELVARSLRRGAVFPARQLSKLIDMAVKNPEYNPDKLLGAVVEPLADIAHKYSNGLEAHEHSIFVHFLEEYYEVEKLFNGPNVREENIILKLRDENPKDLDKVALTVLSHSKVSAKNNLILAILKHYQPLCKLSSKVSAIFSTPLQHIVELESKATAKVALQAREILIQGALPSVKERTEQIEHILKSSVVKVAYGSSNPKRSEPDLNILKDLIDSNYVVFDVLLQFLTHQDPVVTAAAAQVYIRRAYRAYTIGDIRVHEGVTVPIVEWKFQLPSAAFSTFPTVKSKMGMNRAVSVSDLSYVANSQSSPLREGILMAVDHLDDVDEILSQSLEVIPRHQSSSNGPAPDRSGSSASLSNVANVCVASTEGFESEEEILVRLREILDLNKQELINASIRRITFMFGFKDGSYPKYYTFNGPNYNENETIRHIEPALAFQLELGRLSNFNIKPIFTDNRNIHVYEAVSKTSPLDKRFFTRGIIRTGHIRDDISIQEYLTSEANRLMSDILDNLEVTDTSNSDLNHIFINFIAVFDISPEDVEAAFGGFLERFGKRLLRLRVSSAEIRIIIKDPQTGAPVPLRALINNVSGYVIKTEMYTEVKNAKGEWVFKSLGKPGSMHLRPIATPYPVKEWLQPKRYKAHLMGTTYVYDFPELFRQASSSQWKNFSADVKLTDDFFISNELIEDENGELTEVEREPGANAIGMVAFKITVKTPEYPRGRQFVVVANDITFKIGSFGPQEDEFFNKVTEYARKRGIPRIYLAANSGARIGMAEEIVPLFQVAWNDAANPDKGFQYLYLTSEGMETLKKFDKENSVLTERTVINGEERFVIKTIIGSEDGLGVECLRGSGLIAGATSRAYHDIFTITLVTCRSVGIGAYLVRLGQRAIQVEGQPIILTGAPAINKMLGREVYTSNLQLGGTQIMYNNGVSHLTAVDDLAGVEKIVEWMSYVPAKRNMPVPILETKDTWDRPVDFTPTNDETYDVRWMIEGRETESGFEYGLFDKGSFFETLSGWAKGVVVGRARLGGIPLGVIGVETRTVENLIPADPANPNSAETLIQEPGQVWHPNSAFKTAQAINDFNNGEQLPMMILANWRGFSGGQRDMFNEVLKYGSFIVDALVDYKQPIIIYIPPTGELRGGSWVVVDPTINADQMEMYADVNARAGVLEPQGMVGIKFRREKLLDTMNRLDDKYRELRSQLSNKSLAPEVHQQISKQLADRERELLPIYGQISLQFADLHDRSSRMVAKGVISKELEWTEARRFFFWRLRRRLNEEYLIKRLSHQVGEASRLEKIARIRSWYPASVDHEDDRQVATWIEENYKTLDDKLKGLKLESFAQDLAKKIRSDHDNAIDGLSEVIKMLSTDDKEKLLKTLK

For orientation: IC50 means the concentration that gives 50% inhibition. Usually MIC stands for the smallest concentration in the dilution series that meets the test's criterion for growth inhibition. Turning to `COc1ccc(F)cc1[C@H](Cn1c(=O)n(C(C)(C)C(=O)NC(C)C)c(=O)c2c(C)c(-n3nccn3)sc21)OCCO` [Compound I-43, (R)-2-(1-(2-(5-fluoro-2-methoxyphenyl)-2-(2-hydroxyethoxy)ethyl)-5-methyl-2,4-dioxo-6-(2H-1,2,3-triazol-2-yl)-1,4-dihydrothieno[2,3-d]pyrimidin-3(2H)-yl)-N-isopropyl-2-methylpropanamide], the IC50 on human (hACC2) (Table 2a) is 5 to 10 nM; against human (hACC2) (Table 2b, additional results), 5 to 10 nM; at fungal (fACC2) (Table 2a), 0.4 to 1 nM; at fungal (fACC2) (Table 2b, additional results), 0.3 to 1 nM. For the same compound, the MIC in the assay on C. albicans (read-out: MIC, C. albicans ATCC 90028, Table 3a, 3 replicates, MIC recorded at 48 h) fell in the range of 0.25 to 1 µg/mL (≈ 0.425 to 1.7 µM); in the assay on C. albicans (read-out: MIC, C. albicans ATCC 90028, Table 3b (additional results), 3 replicates, MIC recorded at 48 h), 0.25 to 1 µg/mL (≈ 0.425 to 1.7 µM); in the assay on C. krusei (read-out: MIC, C. krusei ATCC 6258, Table 3a, 3 replicates, MIC recorded at 48 h), 0.25 to 1 µg/mL (≈ 0.425 to 1.7 µM); with C. krusei (read-out: MIC, C. krusei ATCC 6258, Table 3b (additional results), 3 replicates, MIC recorded at 48 h), 0.25 to 1 µg/mL (≈ 0.425 to 1.7 µM); in the assay with C. parapsilosis (read-out: MIC, C. parapsilosis ATCC 22019, Table 3a, 3 replicates, MIC recorded at 48 h), 0.25 to 1 µg/mL (≈ 0.425 to 1.7 µM); in the assay with C. parapsilosis (read-out: MIC, C. parapsilosis ATCC 22019, Table 3b (additional results), 3 replicates, MIC recorded at 48 h) it was 0.25 to 1 µg/mL (≈ 0.425 to 1.7 µM). Besides, the IC90 with Botrtyis cinerea (Bc) (read-out: Concentration at 90% Inhibition Bc, Botrtyis cinerea, growth inhibition at 48 hours vs 2% DMSO control) was 2 µg/mL (≈ 3.4 µM); in the assay with Botrtyis cinerea (Bc) (read-out: Concentration at 90% Inhibition Bc, Botrtyis cinerea, growth inhibition vs 2% DMSO control at 48 hours), 2 µg/mL (≈ 3.4 µM); in the assay with Diplodia maydis (Dm) (read-out: Concentration at 90% Inhibition Dm, Diplodia maydis, growth inhibition at 48 hours vs 2% DMSO control) it was 0.4 µg/mL (≈ 0.68 µM); in the assay with Diplodia maydis (Dm) (read-out: Concentration at 90% Inhibition Dm, Diplodia maydis, growth inhibition vs 2% DMSO control at 48 hours) it was 0.4 µg/mL (≈ 0.68 µM); in assay [1] (read-out: Concentration at 90% Inhibition Fv, Fusarium virguliforme, growth inhibition at 48 hours vs 2% DMSO control) it was 0.4 µg/mL (≈ 0.68 µM); in assay [1] (read-out: Concentration at 90% Inhibition Fv, Fusarium virguliforme, growth inhibition vs 2% DMSO control at 48 hours), 0.4 µg/mL (≈ 0.68 µM). For the same compound, the IC90 in assay [2] (read-out: Concentration at 90% Inhibition Pc, Phytophthora capsici, growth inhibition at 48 hours vs 2% DMSO control) turned out to be 2 µg/mL (≈ 3.4 µM); in assay [2] (read-out: Concentration at 90% Inhibition Pc, Phytophthora capsici, growth inhibition vs 2% DMSO control at 48 hours), 10 µg/mL (≈ 17 µM); with Rhizoctonia solani (Rs) (read-out: Concentration at 90% Inhibition Rs, Rhizoctonia solani, mycelial plugs, growth inhibition at 48 hours vs 2% DMSO control) it was 0.08 µg/mL (≈ 0.136 µM); in the assay with Rhizoctonia solani (Rs) (read-out: Concentration at 90% Inhibition Rs, Rhizoctonia solani, mycelial plugs, growth inhibition vs 2% DMSO control at 48 hours), 0.08 µg/mL (≈ 0.136 µM).

On to `COc1ccc(F)cc1[C@H](Cn1c(=O)n(C(C)(C)C(=O)N2CCCC2)c(=O)c2c(C)c(-n3nccn3)sc21)OCCO` [Compound I-44, (R)-1-(2-(5-fluoro-2-methoxyphenyl)-2-(2-hydroxyethoxy)ethyl)-5-methyl-3-(2-methyl-1-oxo-1-(pyrrolidin-1-yl)propan-2-yl)-6-(2H-1,2,3-triazol-2-yl)thieno[2,3-d]pyrimidine-2,4(1H,3H)-dione], for which the IC50 on human (hACC2) (Table 2a) was 5 to 10 nM; against human (hACC2) (Table 2b, additional results) it was 5 to 10 nM; on fungal (fACC2) (Table 2a) it was 0.4 to 1 nM; on fungal (fACC2) (Table 2b, additional results), 0.3 to 1 nM. For the same compound, the MIC in the assay on C. albicans (Table 3a, ATCC 90028, 3 replicates, MIC recorded at 48 h, read-out: MIC, C. albicans ATCC 90028) was 2.1 to 4 µg/mL (≈ 3.5 to 6.66 µM); in the assay on C. albicans (Table 3b (additional results), ATCC 90028, 3 replicates, MIC recorded at 48 h, read-out: MIC, C. albicans ATCC 90028), 1.01 to 2 µg/mL (≈ 1.68 to 3.33 µM); with C. krusei (Table 3a, ATCC 6258, 3 replicates, MIC recorded at 48 h, read-out: MIC, C. krusei ATCC 6258), 1.1 to 2 µg/mL (≈ 1.83 to 3.33 µM); in the assay with C. krusei (Table 3b (additional results), ATCC 6258, 3 replicates, MIC recorded at 48 h, read-out: MIC, C. krusei ATCC 6258), 1.01 to 2 µg/mL (≈ 1.68 to 3.33 µM); with C. parapsilosis (Table 3a, ATCC 22019, 3 replicates, MIC recorded at 48 h, read-out: MIC, C. parapsilosis ATCC 22019), 2.1 to 4 µg/mL (≈ 3.5 to 6.66 µM); with C. parapsilosis (Table 3b (additional results), ATCC 22019, 3 replicates, MIC recorded at 48 h, read-out: MIC, C. parapsilosis ATCC 22019), 1.01 to 2 µg/mL (≈ 1.68 to 3.33 µM). Also, the IC90 in the assay on Botrtyis cinerea (Bc) (Botrtyis cinerea, growth inhibition at 48 hours vs 2% DMSO control, read-out: Concentration at 90% Inhibition Bc) came out at 2 µg/mL (≈ 3.33 µM); in the assay with Botrtyis cinerea (Bc) (Botrtyis cinerea, growth inhibition vs 2% DMSO control at 48 hours, read-out: Concentration at 90% Inhibition Bc), 2 µg/mL (≈ 3.33 µM); in the assay with Diplodia maydis (Dm) (Diplodia maydis, growth inhibition at 48 hours vs 2% DMSO control, read-out: Concentration at 90% Inhibition Dm), 2 µg/mL (≈ 3.33 µM); in the assay on Diplodia maydis (Dm) (Diplodia maydis, growth inhibition vs 2% DMSO control at 48 hours, read-out: Concentration at 90% Inhibition Dm), 10 µg/mL (≈ 16.6 µM); in [1] (growth inhibition at 48 hours vs 2% DMSO control, read-out: Concentration at 90% Inhibition Fv) it was 0.4 µg/mL (≈ 0.666 µM); in assay [1] (growth inhibition vs 2% DMSO control at 48 hours, read-out: Concentration at 90% Inhibition Fv), 0.4 µg/mL (≈ 0.666 µM). The IC90 in [2] (growth inhibition at 48 hours vs 2% DMSO control, read-out: Concentration at 90% Inhibition Pc) was more than 50 µg/mL; in assay [2] (growth inhibition vs 2% DMSO control at 48 hours, read-out: Concentration at 90% Inhibition Pc), more than 50 µg/mL; in the assay on Rhizoctonia solani (Rs) (mycelial plugs, growth inhibition at 48 hours vs 2% DMSO control, read-out: Concentration at 90% Inhibition Rs) it was 2 µg/mL (≈ 3.33 µM); in the assay with Rhizoctonia solani (Rs) (mycelial plugs, growth inhibition vs 2% DMSO control at 48 hours, read-out: Concentration at 90% Inhibition Rs), 10 µg/mL (≈ 16.6 µM).
